The values below come from patent publication US20160000766A1, “HDAC INHIBITORS TO TREAT CHARCOT-MARIE-TOOTH DISEASE” (VIB VZW, priority 2010, published 2016).

The subject of assay [1] is symptomatic HSPB1^S135F-expressing mice. Briefly: Innervation level of the gastrocnemius muscle (neuromuscular junctions) in treated mice. The class given is in vivo, mouse. Conditions: treated for three weeks; eight-month-old mice. As for the experimental part:
(§1) FIG. 9: TSA or tubastatin A treatment leads to muscle reinnervation and rescues axonal transport defects. Panels a and b: Effect of vehicle (DMSO), TSA or tubastatin A treatment on the innervation level of the gastrocnemius muscle in symptomatic, eight-month-old HSPB1^S135F-expressing mice. The number of visible neuromuscular junctions (NMJs) per axon in each field of view (Panel a) and the relative quantity of denervated neuromuscular junctions (Panel b) were determined after staining gastrocnemius muscle with antibodies against α-bungarotoxin and neurofilament heavy chain. n=2 or 3 mice per condition. ***P<0.0001. Panels c and d: Axonal transport of mitochondria measured in cultured DRG neurons isolated from symptomatic HSPB1^S135F-expressing mice after three weeks of treatment with TSA or tubastatin A. Total number (Panel c) and number of moving mitochondria (Panel d) were quantified (per 200 seconds and 100 μm). n=20 to 25 cells isolated from three different mice in each condition. *P<0.05; ***P<0.0001. One-way ANOVA was used to analyze the data. Tukey's HSD test was used for post hoc analysis in Panels a through d. Data are presented as means±s.e.m.
(§2) It was also observed that the loss of acetylcholine-receptor clusters at the end plates in gastrocnemius muscle was restored (FIG. 9, Panel a) and that the level of denervation of the remaining neuromuscular junctions was decreased (FIG. 9, Panel b). These observations indicate that increasing acetylated α-tubulin abundance in peripheral nerves leads to re-innervation of muscles.

The test system of assay [2] is DRG neurons isolated from symptomatic HSPB1^S135F-expressing mice. The assay can be described thus: Ex vivo axonal transport of mitochondria in DRG neurons isolated from treated mice. Also on record: species or system mouse. Conditions: after three weeks of in vivo treatment. As for the experimental part:
as §1
(§3) It has previously been shown that the intracellular distribution of specific cargoes, such as mutant HSPB1 itself, but also neurofilament and p150, was disturbed in cortical neurons transfected with HSPB1^P182L (ref. 12). In order to study effects of mutant HSPB1 on axonal transport, dorsal root ganglion (DRG) neurons from adult transgenic mice were isolated and analyzed mitochondrial transport in these neurons after two days in culture. Mitochondrial movement was visualized by loading DRG neurons with a selective mitochondrial marker (MITOTRAcKER®) and by live video imaging (FIG. 6, Panel a). Kymographs resulting from time compression of video images were used to quantify the total number of mitochondria present in the neurites and to discriminate antero- and retrogradely moving from stationary mitochondria (FIG. 6, Panel a, right-side panels).
Finally, we measured ex vivo axonal transport in DRG neurons isolated from treated mice.

Assay [3] deals with symptomatic HSPB1^S135F-expressing mice. Briefly: Motor performance on accelerating rotarod of treated HSPB1^S135F-expressing mice. The class given is in vivo, mouse. Conditions: for motor performance (accelerating rotarod): treated for three weeks, TSA 10 mg per kg, tubastatin A 25 mg per kg; for CMT2 phenotype at the behavioral and electrophysiological levels: treatment of mutant HSPB1 mice (Example 9). The method, then: (§4) FIG. 8: HDAC6 inhibition rescues axonal transport defects and restores the CMT2 phenotype. Panels a and b: Axonal transport of mitochondria measured in DRG neurons isolated from ten-month-old HSPB1^S135F-expressing mice after 12 hours of treatment with TSA (0.4 μM), tubacin (2 μM), tubastatin A (1 μM) or an equivalent amount of DMSO. Total number of (Panel a) and number of moving (Panel b) mitochondria (per 200 seconds and per 100 μm) were quantified. n=20 to 30 cells isolated from three different mice for each condition. *P<0.05; **P<0.01; ***P<0.0001. Panels c and d: Western blots of sciatic nerve and spinal cord extracts from symptomatic eight-month-old HSPB1^S135F-expressing mice treated daily for three weeks with TSA (10 mg per kg body weight; Panel c) or tubastatin A (25 mg per kg body weight; Panel d) probed against acetylated tubulin. Equal loading was confirmed with α-tubulin staining. n=3. Panels e and f: Quantifications of optical density (OD) of acetylated tubulin on Western blots of sciatic nerve (Panel e) and spinal cord (Panel f) extracts of symptomatic HSPB1^S135F-expressing mice treated with TSA or tubastatin A. n=3. Panel g: Motor performance on an accelerating rotarod of HSPB1^S135F-expressing mice treated for three weeks with TSA or tubastatin A. Panels h and i: Effect of the TSA or tubastatin A treatments of HSPB1^S135F-expressing mice on the amplitudes of CMAPs (Panel h) or SNAPs (Panel i). n=3 to 6 mice per group. […]; **P<0.001; ***P<0.0001. One-way ANOVA was used to analyze the data in Panels a, b, and e through i. Data are presented as means±s.e.m.
Next, general motor performance was assessed using an accelerating rotarod. All mice could stay on the rotarod (300 seconds) until the age of six months. From that age on, both mutant HSPB1 lines started to fail on the rotarod test and a progressive reduction in performance was observed over time (P<0.0001; FIG. 1, Panel c).
as §2
In general terms: The rotarod test checks motor coordination on a turning rod.

For assay [4] the test system is unchanged. The assay can be described thus: Nerve conduction studies (CMAP and SNAP amplitudes) in treated mice. To be noted: treated for three weeks; TSA 10 mg per kg, tubastatin A 25 mg per kg. The class given is in vivo, mouse. The method, then: as §4
Nerve conduction studies are routinely done on CMT patients to discriminate demyelinating (type 1) from axonal (type 2) forms, as well as to assess whether patients show either a mixed sensorimotor (CMT2) or a pure motor neuropathy (distal HMN). Therefore, nerve conduction studies were performed on transgenic HSPB1 mice using sub-dermal electrodes, either at the level of the gastrocnemius muscle to measure compound muscle action potentials (CMAPs), or in the distal end of the tail to record sensory nerve action potentials (SNAPs). […] The decrease in CMAP amplitudes in function of age was more pronounced in HSPB1^P182L compared to HSPB1^S135F mice as assessed by the slopes (slopeS135F=−4.66±0.32; slopeP182L=−6.23±0.93; P=0.004; FIG. 4, Panel c). CMAP latencies were unaffected, confirming the axonal nature of the motor neuropathy in both mutant HSPB1 lines (FIG. 4, Panel d).
It was also observed that the loss of acetylcholine-receptor clusters at the end plates in gastrocnemius muscle was restored (FIG. 9, Panel a) and that the level of denervation of the remaining neuromuscular junctions was decreased (FIG. 9, Panel b). […]

The subject of assay [5] is DRG neurons isolated from symptomatic HSPB1^S135F mice. Briefly: Axonal transport of mitochondria in cultured DRG neurons treated in vitro with HDAC inhibitors. The class given is cell-based, mouse. Conditions: for number of moving mitochondria / total numbers of mitochondria / effectiveness on total and moving mitochondria relative to TSA: 12 hours treatment; for number of moving mitochondria / total numbers of mitochondria: TSA 0.4 μM, tubacin 2 μM, tubastatin A 1 μM, vs DMSO; for effectiveness on total and moving mitochondria relative to TSA: FIG. 8, Panels a and b. As for the experimental part: (§5) Panels a and b: Axonal transport of mitochondria was assessed in DRG neurons isolated from symptomatic (eight-month-old) HSPB1^S135F mice after 12 hours incubation with various concentrations (0, 0.25, 0.50 or 1.00 μM) of Tubastatin A. Panel a: Quantification of the total number of mitochondria at various concentrations of Tubastatin A. One-way ANOVA. P>0.05. Panel b: Quantification of the number of moving mitochondria at different concentrations of Tubastatin A. One-way ANOVA. * P<0.05; ** P<0.001; P<0.0001. Panel c: Quantification of the integrated density of the acetylated tubulin signal along neurites at various concentrations of Tubastatin A. n=25 to 30 cells/condition. One-way ANOVA. * P<0.05.
as §4, §3
Treatment of DRG neurons isolated from symptomatic HSPB1^[…]-expressing mice with TSA, tubacin or tubastatin A increased total numbers of mitochondria FIG. 8, Panel a) and restored the number of moving mitochondria (FIG. 8, Panel b).

The test system of another assay is acetylated α-tubulin. Briefly: Western blots of acetylated α-tubulin in sciatic nerve and spinal cord of treated mice. The class given is in vivo, mouse. Conditions: daily for 21 days, TSA 10 mg per kg, tubastatin A 25 mg per kg; for acetylated α-tubulin amounts in peripheral nerves: sciatic nerve. As for the experimental part:
as §4
Next, symptomatic HSPB1^S135F-expressing mice were treated for 21 days with either a nonspecific or a specific HDAC6 inhibitor.

The test system of a further assay is acetylated tubulin. Briefly: Acetylated tubulin signal along neurites of cultured DRG neurons. The class given is cell-based, mouse. Conditions: 12 hours incubation; 0, 0.25, 0.50 or 1.00 μM. As for the experimental part: as §5

“Also recorded” adds a separate entry of the source.

Take `CC(/C=C/C(=O)NO)=C\[C@@H](C)C(=O)c1ccc(N(C)C)cc1` [TSA, Trichostatin A]: in assay [1], the “level of denervation of the remaining neuromuscular junctions” value was “decreased” and the “loss of acetylcholine-receptor clusters at the end plates in gastrocnemius muscle” value was “restored”. For the same compound, the “number of moving mitochondria (ex vivo)” value in assay [2] was “increased significantly”. Moreover, in assay [3], the “motor performance (accelerating rotarod)” value is recorded as “significantly increased”; the “CMT2 phenotype at the behavioral and electrophysiological levels” value is “partially restored”. In assay [4], the CMAP amplitudes result is on record as “increased” and the SNAP amplitudes entry was “increased”. Besides, in assay [5], the “number of moving mitochondria” value was “restored” and the “total numbers of mitochondria” value is on record as “increased”. Further, in the assay with acetylated α-tubulin, the “acetylated α-tubulin amounts in spinal cord” value was “also increased”, the “overall α-tubulin abundance” value is on record as “did not affect” and the “acetylated α-tubulin amounts in peripheral nerves” value was “significant increase”.
Take `O=C(CCCCCCC(=O)Nc1ccc([C@H]2O[C@@H](CSc3nc(-c4ccccc4)c(-c4ccccc4)o3)C[C@@H](c3ccc(CO)cc3)O2)cc1)NO` [tubacin]: in assay [5], the “effectiveness on total and moving mitochondria relative to TSA” value is recorded as “more effective compared to TSA”; the “number of moving mitochondria” value is listed as “restored”; the “total numbers of mitochondria” value is given as “increased”.
As to `CN1CCc2c(c3ccccc3n2Cc2ccc(C(=O)NO)cc2)C1` [tubastatin A], in the assay with acetylated tubulin, the “acetyl-tubulin levels in vitro (integrated density along neurites)” value was “increased”. Also, in assay [1], the “level of denervation of the remaining neuromuscular junctions” value was “decreased” and the “loss of acetylcholine-receptor clusters at the end plates in gastrocnemius muscle” value was “restored”. In assay [2], the “mitochondrial motility, overall rescue and comparison with TSA (ex vivo)” value is listed as “more effective than TSA; also recorded: complete rescue”; the “number of moving mitochondria (ex vivo)” value was “increased significantly”; the “total number of mitochondria (ex vivo)” value was “increased”. Further, in assay [3], the “motor performance (accelerating rotarod)” value is reported as “significantly increased”; the “CMT2 phenotype at the behavioral and electrophysiological levels” value is recorded as “partially restored”. Besides, in assay [4], the CMAP amplitudes entry was “increased” and the SNAP amplitudes result is recorded as “increased”. Further, the “axonal transport of mitochondria, dose dependence” value in assay [5] (12 hours incubation, 0, 0.25, 0.50 or 1.00 μM, eight-month-old HSPB1^S135F mice) is “dose-dependently rescued”. In addition, in assay [5], the “effectiveness on total and moving mitochondria relative to TSA” value is “more effective compared to TSA”; the “number of moving mitochondria” value is listed as “restored”; the “total numbers of mitochondria” value is “increased”. Besides, in the assay on acetylated α-tubulin, the “overall α-tubulin abundance” value is listed as “did not affect” and the “acetylated α-tubulin amounts in peripheral nerves” value is “significant increase”.
